Laboratory results reported in ChEMBL document CHEMBL1136547, “2,3-Diarylbenzopyran derivatives as a novel class of selective cyclooxygenase-2 inhibitors” (Bioorg Med Chem Lett, 2003).

What was measured:
[1] = biological target: T1, Prostaglandin G/H synthase 1 (Mus musculus) (UniProt P22437); experiment: In vitro percentage inhibition against prostaglandin G/H synthase 1 using freshly harvested mouse peritoneal macrophages at 10 ug/mL concentration
T1 sequence (whole entry): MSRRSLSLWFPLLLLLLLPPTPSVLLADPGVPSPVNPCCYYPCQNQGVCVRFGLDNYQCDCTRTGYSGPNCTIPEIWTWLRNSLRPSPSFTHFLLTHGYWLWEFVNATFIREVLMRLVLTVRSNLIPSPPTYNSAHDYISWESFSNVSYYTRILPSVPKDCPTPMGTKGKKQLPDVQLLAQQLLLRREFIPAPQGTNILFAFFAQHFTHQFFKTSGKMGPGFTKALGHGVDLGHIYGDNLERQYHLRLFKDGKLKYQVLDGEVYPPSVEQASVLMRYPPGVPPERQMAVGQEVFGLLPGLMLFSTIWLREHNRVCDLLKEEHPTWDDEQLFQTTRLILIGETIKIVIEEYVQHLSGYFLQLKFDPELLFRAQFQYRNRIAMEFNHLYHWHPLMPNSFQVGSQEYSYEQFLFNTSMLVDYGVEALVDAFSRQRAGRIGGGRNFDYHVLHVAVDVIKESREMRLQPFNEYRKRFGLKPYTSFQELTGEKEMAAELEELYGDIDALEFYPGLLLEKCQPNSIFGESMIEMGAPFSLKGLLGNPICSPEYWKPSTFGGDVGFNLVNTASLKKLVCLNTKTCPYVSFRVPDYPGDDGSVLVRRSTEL

[2] = biological target: T2, Prostaglandin G/H synthase 2 (Mus musculus, UniProt Q05769); experiment: In vitro inhibitory concentration against prostaglandin G/H synthase 2 using freshly harvested mouse peritoneal macrophages
T2 sequence (Q05769 whole entry): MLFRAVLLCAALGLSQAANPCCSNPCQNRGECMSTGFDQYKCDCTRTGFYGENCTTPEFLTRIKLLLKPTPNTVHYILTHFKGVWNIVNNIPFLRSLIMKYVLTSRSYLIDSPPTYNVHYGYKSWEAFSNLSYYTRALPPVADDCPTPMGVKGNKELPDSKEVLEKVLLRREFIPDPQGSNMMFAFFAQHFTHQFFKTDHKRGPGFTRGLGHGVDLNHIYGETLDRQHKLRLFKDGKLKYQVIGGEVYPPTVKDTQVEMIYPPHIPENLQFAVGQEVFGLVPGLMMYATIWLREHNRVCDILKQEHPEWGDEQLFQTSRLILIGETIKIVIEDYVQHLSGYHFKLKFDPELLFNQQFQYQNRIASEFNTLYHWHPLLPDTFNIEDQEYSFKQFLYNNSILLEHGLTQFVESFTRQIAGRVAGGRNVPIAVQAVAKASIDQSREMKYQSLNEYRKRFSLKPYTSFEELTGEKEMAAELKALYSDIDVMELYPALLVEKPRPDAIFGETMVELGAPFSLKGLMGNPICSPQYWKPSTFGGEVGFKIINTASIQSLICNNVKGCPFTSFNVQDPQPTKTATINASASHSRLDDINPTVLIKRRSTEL

[3] = biological target: T3, Prostaglandin G/H synthase 2 (Mus musculus) (UniProt Q05769); experiment: In vitro percentage inhibition against Prostaglandin G/H synthase 2 using freshly harvested mouse peritoneal macrophages at 3 ug/mL concentration
T3 sequence (whole entry): T2 sequence (Q05769 whole entry)

Rattus norvegicus [4] = experiment: Anti-inflammatory activity in Dawley rats by carrageenan-induced rat paw edema at a dose of 3 mg/kg by oral administration; assay type: functional
Rattus norvegicus [5] = experiment: Anti-inflammatory activity in Dawley rats by carrageenan-induced rat paw edema at a dose of 10 mg/kg by oral administration; assay type: functional
[6] = Half-life period in rat at 10 mg/kg; assay type: ADME, organism-based; design: dose 10 mg/kg; settings: in vivo
[7] = Cmax in rat at 10 mg/kg; assay type: ADME, organism-based; design: dose 10 mg/kg; settings: in vivo
Rattus norvegicus [8] = experiment: Anti-inflammatory activity in Dawley rats by carrageenan-induced rat paw edema at a dose of 30 mg/kg by oral administration; assay type: functional
[9] = Tmax in rat at 10 mg/kg; assay type: ADME, organism-based; design: dose 10 mg/kg; settings: in vivo
[10] = biological target: T3, Prostaglandin G/H synthase 2 (Mus musculus); experiment: In vitro percentage inhibition against Prostaglandin G/H synthase 2 using freshly harvested mouse peritoneal macrophages at 10 ug/mL concentration
Rattus norvegicus [11] = experiment: Anti-inflammatory activity in Dawley rats by carrageenan-induced rat paw edema at a dose of 30 mg/kg; assay type: functional
Rattus norvegicus [12] = experiment: Anti-inflammatory activity in Dawley rats by carrageenan-induced rat paw edema at a dose of 3 mg/kg; assay type: functional
[13] = biological target: T1, Prostaglandin G/H synthase 1 (Mus musculus); experiment: In vitro percentage inhibition against using freshly harvested mouse peritoneal macrophages Prostaglandin G/H synthase 1 at 10 ug/mL concentration

SMILES	inhibition [1]	IC50 [2]	other results
CS(=O)(=O)c1ccc(-c2oc3ccccc3c(=O)c2-c2ccc(Cl)cc2)cc1	< 5%		
CS(=O)(=O)c1ccc(-c2oc3ccccc3c(=O)c2-c2cccc3ccccc23)cc1	< 5%	3800 nM	
CS(=O)(=O)c1ccc(-c2oc3ccccc3c(=O)c2-c2ccc(F)cc2)cc1	< 5%	203 nM	
NS(=O)(=O)c1ccc(-c2oc3ccccc3c(=O)c2-c2ccccc2)cc1	61%	106 nM	
CS(=O)(=O)c1ccc(-c2oc3ccccc3c(=O)c2-c2cccc(F)c2)cc1	< 5%	532 nM	
CS(=O)(=O)c1ccc(-c2oc3ccccc3c(=O)c2-c2cc(Cl)cc(Cl)c2)cc1	< 5%		inhibition [3]: 7%
CSc1ccc(-c2c(-c3ccc(S(N)(=O)=O)cc3)oc3ccccc3c2=O)cc1	90%	283 nM	
CS(=O)(=O)c1ccc(-c2oc3ccc(F)cc3c(=O)c2-c2cccnc2)cc1	12%	1260 nM	inhibition in vivo at 3 mg/kg (Rattus norvegicus [4]): 20%; inhibition in vivo at 10 mg/kg (Rattus norvegicus [5]): 26%; half-life [6]: 7.4 h; Cmax [7]: 6900 ng/mL; inhibition in vivo at 30 mg/kg (Rattus norvegicus [8]): 41%; Tmax [9]: 5 h
Cc1ccccc1-c1c(-c2ccc(S(C)(=O)=O)cc2)oc2ccccc2c1=O	< 5%	948 nM	
CS(=O)(=O)c1ccc(-c2oc3ccccc3c(=S)c2-c2ccccc2F)cc1	< 5%	195 nM	
CS(=O)(=O)c1ccc(-c2oc3ccccc3c(=O)c2-c2ccccc2F)cc1	< 5%	76.1 nM	
COc1ccc(-c2c(-c3ccc(S(C)(=O)=O)cc3)oc3ccccc3c2=O)cc1	< 5%	517 nM	
Cn1cc(-c2c(-c3ccc(S(C)(=O)=O)cc3)oc3ccccc3c2=O)cn1	< 5%		inhibition [10]: 13%
CS(=O)(=O)c1ccc(-c2oc3ccccc3c(=O)c2-c2cccnc2)cc1	13%		inhibition in vivo at 30 mg/kg (Rattus norvegicus [11]): 41%; inhibition in vivo at 3 mg/kg (Rattus norvegicus [12]): 18%
CS(=O)(=O)c1ccc(-c2oc3ccccc3c(=S)c2-c2ccc(F)cc2)cc1	< 5%	73.1 nM	
CS(=O)(=O)c1ccc(-c2oc3ccccc3c(=O)c2-c2cccc(Cl)c2)cc1	< 5%	365 nM	
CS(=O)(=O)c1ccc(-c2oc3ccccc3c(=O)c2-c2ccccc2)cc1	< 5%	930 nM	
COc1ccc(-c2c(-c3ccc(S(C)(=O)=O)cc3)oc3ccccc3c2=O)cn1	18%	2310 nM	
NS(=O)(=O)c1ccc(-c2oc3ccccc3c(=O)c2-c2ccc3c(c2)OCO3)cc1		925 nM	inhibition [13]: 75%
CS(=O)(=O)c1ccc(-c2oc3ccccc3c(=O)c2-c2ccc(Cl)c(Cl)c2)cc1	< 5%	269 nM	
CS(=O)(=O)c1ccc(-c2oc3ccccc3c(=O)c2-c2ccc(Cl)cc2Cl)cc1	< 5%	359 nM	
COc1ccc(-c2c(-c3ccc(S(C)(=O)=O)cc3)oc3ccccc3c2=S)cc1	< 5%	142 nM	
CS(=O)(=O)c1ccc(-c2oc3ccccc3c(=O)c2-c2cc3ccccc3s2)cc1	< 5%	324 nM	
NS(=O)(=O)c1ccc(-c2oc3ccccc3c(=O)c2-c2ccc(F)cc2)cc1	67%	126 nM	
CS(=O)(=O)c1ccc(-c2oc3ccccc3c(=S)c2-c2ccccc2)cc1	< 5%	102 nM	
NS(=O)(=O)c1ccc(-c2oc3ccccc3c(=O)c2-c2ccccc2F)cc1	60%	177 nM	
CS(=O)(=O)c1ccc(-c2oc3ccccc3c(=O)c2-c2ccncc2)cc1	< 5%		inhibition [10]: 24%
CS(=O)(=O)c1ccc(-c2oc3ccccc3c(=S)c2-c2ccc(Cl)c(Cl)c2)cc1	< 5%	520 nM	
CS(=O)(=O)c1ccc(-c2oc3ccccc3c(=O)c2-c2ccccn2)cc1	17%		inhibition [10]: 44%
COc1ccc(-c2c(-c3ccc(S(N)(=O)=O)cc3)oc3ccccc3c2=O)cc1	84%	393 nM	
